Biological target: T1, cynomolgus BK1-receptor (Macaca fascicularis, UniProt Q3BCU0)
T1 construct: expressed in transfected cells; host or cells: CHO cells (homogenate)
T1 sequence (Q3BCU0 1-352): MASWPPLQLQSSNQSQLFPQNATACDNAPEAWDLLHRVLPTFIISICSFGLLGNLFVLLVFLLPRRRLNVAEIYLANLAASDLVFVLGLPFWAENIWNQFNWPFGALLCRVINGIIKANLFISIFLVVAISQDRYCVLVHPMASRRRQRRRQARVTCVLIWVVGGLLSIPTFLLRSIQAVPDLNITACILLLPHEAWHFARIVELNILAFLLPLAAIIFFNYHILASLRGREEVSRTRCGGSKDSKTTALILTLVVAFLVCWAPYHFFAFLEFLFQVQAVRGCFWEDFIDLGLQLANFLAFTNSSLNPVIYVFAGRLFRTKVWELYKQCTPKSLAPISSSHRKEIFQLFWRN
Test: cynoBK1-receptor binding assay
Conditions: CHO cells expressing cynomolgus BK1-receptor, radioligand kallidine (DesArg10,Leu9); for inhibition at 10 µM: at 10 μgmol/L
Summary of the method: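 Radioligand competition on homogenates of CHO cells expressing cynomolgus BK1 receptor (50 to 250 μg protein/assay), incubated 60-180 minutes at ambient temperature with 0.5 to 5.0 nM [3H]kallidine (DesArg10,Leu9) plus increasing test compound. Filtration binding; non-specific defined with 1.0 μM kallidine (DesArg10); Ki from non-linear curve fitting.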

| Structure (SMILES) | Ki | inhibition at 10 µM |
| --- | --- | --- |
| O=C(N[C@@]1(C(=O)NCc2ccc(Nc3ccccc3C(F)(F)F)cc2)CCOC1)c1ccc(O)nc1 [(98)] | 417 nM | 103% |
| O=C(NC1(C(=O)NCc2ccc(Nc3ccccc3C(F)(F)F)cc2)CC1)c1cncnc1 [(4)] | – | 109% |
| CN(c1ccccc1)c1ccc(CNC(=O)C2(NC(=O)c3cncnc3)CC2)cc1 [(109)] | – | 27% |
| Nc1ncc(C(=O)NC2(C(=O)NCc3ccc(Nc4ccc(F)cc4C(F)(F)F)cn3)CC2)o1 [(169)] | 292 nM | 90% |
| O=C(N[C@@]1(C(=O)NCc2ccc(Nc3ccccc3C(F)(F)F)cc2)CCOC1)c1ccc(F)nc1 [(107)] | – | 95% |
| O=C(N[C@@]1(C(=O)NCc2ccc(Nc3ccccc3C(F)(F)F)cc2)CCOC1)c1cncs1 [(89)] | – | 96% |
| N#Cc1cc(OC(F)(F)F)ccc1Nc1ccc(CNC(=O)C2(NC(=O)c3cncnc3)CC2)cc1 [(161)] | > 500 nM | 69% |
| O=C(Cc1ccccn1)N[C@@]1(C(=O)NCc2ccc(Nc3ccccc3C(F)(F)F)cc2)CCOC1 [(59)] | – | 22% |
| Cc1ncncc1C(=O)N[C@@]1(C(=O)NCc2ccc(Nc3ccccc3C(F)(F)F)cc2)CCOC1 [(77)] | – | 96% |
| COc1ncc(C(=O)NC2(C(=O)NCc3ccc(Nc4ccc(Br)cc4C(F)(F)F)cn3)CC2)cn1 [(138)] | 6.7 nM | 107% |
| O=C(NC1(C(=O)NCc2ccc(Nc3ccc(Br)cc3C(F)(F)F)cn2)CC1)c1cncc(O)c1 [(141)] | 7.6 nM | 100% |
| O=C(NC1(C(=O)NCc2ccc(Nc3ccccc3C(F)(F)F)cc2)CC1)C1CC1 [(15)] | – | 99% |
| Cc1ncc(C(=O)NC2(C(=O)NCc3ccc(Nc4ccc(Br)cc4C(F)(F)F)cn3)CC2)cn1 [(139)] | 2.8 nM | 107% |
| O=C(NC1(C(=O)NCc2ccc(Nc3ccccc3C(F)(F)F)cc2)CC1)c1ccccc1 [(20)] | – | 81% |

Next, values leading:

| Ki | inhibition at 10 µM | Structure (SMILES) |
| --- | --- | --- |
| 72 nM | – | N#Cc1ccc(C(=O)NC2(C(=O)NCc3ccc(Nc4ccc(F)cc4C(F)(F)F)cn3)CC2)cn1 [(256)] |
| 3.9 nM | – | CCNc1ncc(C(=O)NC2(C(=O)NCc3ccc(Nc4ccc(F)cc4C(F)(F)F)cn3)CC2)cn1 [(247)] |
| 6.3 nM | – | CNc1ncc(C(=O)N[C@@]2(C(=O)NCc3ncc(Nc4ccc(F)cc4C(F)(F)F)cc3Cl)CCOC2)cn1 [(224)] |
| 21 nM | – | CNc1ncc(C(=O)N[C@@]2(C(=O)NCc3ncc(Nc4ccc(Cl)cc4C(F)(F)F)cc3Cl)CCOC2)cn1 [(281)] |
| 2.7 nM | 105% | Nc1ccc(C(=O)NC2(C(=O)NCc3ccc(Nc4ccc(Br)cc4C(F)(F)F)cn3)CC2)cn1 [(173)] |
| 187 nM | – | CN(C)c1ncc(C(=O)NC2(C(=O)NCc3ccc(Nc4ccc(Cl)cc4C(F)(F)F)cn3)CC2)cn1 [(210)] |
| 6.1 nM | – | CCc1ncc(C(=O)NC2(C(=O)NCc3ccc(Nc4ccc(Cl)cc4C(F)(F)F)cn3)CC2)cn1 [(371)] |
| 57 nM | – | Nc1cncc(C(=O)N[C@@]2(C(=O)NCc3ccc(Nc4ccc(Cl)cc4C(F)(F)F)cc3)CCOC2)c1 [(321)] |
| 84 nM | – | O=C(NC1(C(=O)NCc2ccc(Nc3ccc(Cl)cc3C(F)(F)F)cn2)CC1)c1ccnc(O)c1 [(207)] |
| 394 nM | – | CNc1cncc(C(=O)N[C@@]2(C(=O)NCc3ncc(Nc4c(F)cccc4C(F)(F)F)cc3Cl)CCOC2)c1 [(259)] |
| 184 nM | – | Nc1ccc(C(=O)N[C@@]2(C(=O)NCc3ccc(Nc4ccc(F)cc4C(F)(F)F)cc3)CCOC2)cn1 [(309)] |
| 28 nM | – | O=C(NC1(C(=O)NCc2ccc(Nc3ccc(F)cc3C(F)(F)F)cn2)CC1)c1cncc(O)c1 [(243)] |
| 2.5 nM | – | Cc1ncc(C(=O)NC2(C(=O)NCc3ncc(Nc4ccc(Cl)cc4C(F)(F)F)cc3C)CC2)cn1 [(360)] |
| 39 nM | – | CC(C)c1ncc(C(=O)N[C@@]2(C(=O)NCc3ccc(Nc4ccc(F)cc4C(F)(F)F)cc3)CCOC2)cn1 [(310)] |
| 19 nM | 99% | Cc1ncc(C(=O)NC2(C(=O)NCc3ccc(Nc4ccc(F)cc4C#N)cc3)CC2)cn1 [(181)] |
